Assay results: patent US8063220B2, “Sulfonyl-quinoline derivatives” (Richter Gedeon Nyrt., priority 2007, dated 2011)

Assays:
rat mGluR1 = target: T1, rat mGluR1 (Rattus norvegicus, UniProt P23385); test: MGluR1 receptor binding test ([3H]R214127 displacement, rat cerebellar membrane preparation); conditions: rat mGluR1, [3H]R214127 3 nM; read-out: mGlu1 Ki
T1 construct: rat cerebellar membrane preparation was used; from tissue; host or cells: rat cerebellum (membrane preparation)
Procedure: MGluR1 receptor binding tests were performed according to modified method of Lavreysen et al. (Mol. Pharm., 2003, 63, 1082). Based on the high homology between the human and rat mGluR1 receptors, rat cerebellar membrane preparation was used to determine the binding characteristics of reference compounds and novel compounds to the rat mGluR1. [3H]R214127 (3 nM) was used as radioligand and the nonspecific binding was determined in the presence of 1 μM of R214127.
IC-50 values were determined from displacement curves by nonlinear regression analysis and were converted to Ki values using the equation method of Cheng and Prusoff (Biochem. Pharmacol., 1973, 22, 3099).

rat mGluR5 = target: T2, rat mGluR5 (Rattus norvegicus, UniProt P31424); test: MGluR5 receptor binding test ([3H]-M-MPEP displacement, rat cerebro-cortical membrane preparation); conditions: rat mGluR5, [3H]-M-MPEP 2 nM; read-out: mGlu5 Ki
T2 construct: Rat cerebro-cortical membrane preparation was used; from tissue; host or cells: rat cerebral cortex (membrane preparation)
T2 sequence (P31424 21-1203): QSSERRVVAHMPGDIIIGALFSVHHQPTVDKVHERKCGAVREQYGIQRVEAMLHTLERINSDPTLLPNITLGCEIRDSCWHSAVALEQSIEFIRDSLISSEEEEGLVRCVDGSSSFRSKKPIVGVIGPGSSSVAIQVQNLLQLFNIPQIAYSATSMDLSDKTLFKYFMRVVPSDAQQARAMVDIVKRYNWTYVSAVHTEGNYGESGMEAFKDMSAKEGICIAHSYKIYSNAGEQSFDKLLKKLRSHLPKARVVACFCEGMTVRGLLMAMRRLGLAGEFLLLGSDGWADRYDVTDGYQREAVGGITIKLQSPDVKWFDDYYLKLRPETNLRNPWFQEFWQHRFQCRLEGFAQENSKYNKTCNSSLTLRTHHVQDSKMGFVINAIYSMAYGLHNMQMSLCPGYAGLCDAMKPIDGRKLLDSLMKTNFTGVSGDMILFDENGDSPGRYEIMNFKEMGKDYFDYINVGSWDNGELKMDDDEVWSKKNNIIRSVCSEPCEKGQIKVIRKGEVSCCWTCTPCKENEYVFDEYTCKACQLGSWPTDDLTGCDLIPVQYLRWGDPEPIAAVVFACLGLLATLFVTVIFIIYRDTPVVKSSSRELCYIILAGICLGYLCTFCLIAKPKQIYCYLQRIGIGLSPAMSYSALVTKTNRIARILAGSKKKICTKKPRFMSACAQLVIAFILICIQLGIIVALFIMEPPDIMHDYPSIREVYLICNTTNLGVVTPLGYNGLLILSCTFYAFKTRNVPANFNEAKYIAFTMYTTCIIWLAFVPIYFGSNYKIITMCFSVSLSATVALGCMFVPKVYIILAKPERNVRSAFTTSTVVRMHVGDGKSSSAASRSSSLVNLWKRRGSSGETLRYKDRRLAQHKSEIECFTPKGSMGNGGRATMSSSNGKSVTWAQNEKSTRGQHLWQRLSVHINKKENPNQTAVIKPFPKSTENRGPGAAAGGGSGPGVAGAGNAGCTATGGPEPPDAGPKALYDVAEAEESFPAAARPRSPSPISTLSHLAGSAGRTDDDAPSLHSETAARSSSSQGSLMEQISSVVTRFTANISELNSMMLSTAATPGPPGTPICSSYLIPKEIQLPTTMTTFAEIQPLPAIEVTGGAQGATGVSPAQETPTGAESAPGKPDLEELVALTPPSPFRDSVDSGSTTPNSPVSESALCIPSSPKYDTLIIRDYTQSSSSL
Procedure: Rat cerebro-cortical membrane preparation was used to determine the binding characteristics of reference compounds and novel compounds to the rat mGluR5. The A18 cell line expressing hmGluR5a (purchased from Euroscreen) was used to determine binding characteristics of the chemical compounds to the human mGluR5a receptor. [3H]-M-MPEP (2 nM) was used as radioligand. The nonspecific binding was determined in the presence of 10 μM M-MPEP.

T1 sequence (P23385 19-1199): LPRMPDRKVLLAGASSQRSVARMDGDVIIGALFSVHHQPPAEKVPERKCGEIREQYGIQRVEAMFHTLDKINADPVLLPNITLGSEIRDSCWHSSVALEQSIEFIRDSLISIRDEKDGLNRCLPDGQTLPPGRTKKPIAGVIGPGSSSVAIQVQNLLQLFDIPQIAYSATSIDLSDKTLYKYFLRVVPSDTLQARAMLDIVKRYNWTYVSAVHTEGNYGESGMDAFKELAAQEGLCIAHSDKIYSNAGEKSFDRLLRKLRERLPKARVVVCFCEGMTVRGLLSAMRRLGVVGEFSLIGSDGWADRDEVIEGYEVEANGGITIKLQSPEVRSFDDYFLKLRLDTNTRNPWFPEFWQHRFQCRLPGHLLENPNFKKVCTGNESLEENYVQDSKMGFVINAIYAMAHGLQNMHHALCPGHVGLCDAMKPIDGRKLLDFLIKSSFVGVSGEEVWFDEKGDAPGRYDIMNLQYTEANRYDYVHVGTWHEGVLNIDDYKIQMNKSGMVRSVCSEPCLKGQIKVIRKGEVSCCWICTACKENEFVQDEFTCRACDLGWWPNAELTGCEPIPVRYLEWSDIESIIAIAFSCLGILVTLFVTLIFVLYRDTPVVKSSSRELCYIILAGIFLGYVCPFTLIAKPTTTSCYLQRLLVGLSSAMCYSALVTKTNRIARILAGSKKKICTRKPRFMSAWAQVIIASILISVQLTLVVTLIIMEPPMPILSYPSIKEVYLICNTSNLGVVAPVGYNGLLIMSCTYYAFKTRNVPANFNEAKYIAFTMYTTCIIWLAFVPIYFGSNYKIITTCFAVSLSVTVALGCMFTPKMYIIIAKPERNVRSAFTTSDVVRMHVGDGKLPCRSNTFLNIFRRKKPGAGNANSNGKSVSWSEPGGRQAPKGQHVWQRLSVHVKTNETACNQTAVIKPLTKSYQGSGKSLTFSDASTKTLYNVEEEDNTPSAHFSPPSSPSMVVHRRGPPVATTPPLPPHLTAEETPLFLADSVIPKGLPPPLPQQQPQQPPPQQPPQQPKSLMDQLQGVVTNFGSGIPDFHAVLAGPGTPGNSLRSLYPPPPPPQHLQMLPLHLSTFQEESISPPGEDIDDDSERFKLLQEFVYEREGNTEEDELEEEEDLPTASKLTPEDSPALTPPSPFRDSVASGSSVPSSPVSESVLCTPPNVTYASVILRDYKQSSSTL

O=S(=O)(c1cc(Cl)cc(Cl)c1)c1cnc2c(F)cccc2c1-c1ccc(F)c(F)c1 [Compound 220]
Ki (rat mGluR1): > 500 nM | Ki (rat mGluR5): < 200 nM

O=S(=O)(c1ccc(F)cc1)c1cnc2c(F)cccc2c1-c1cccc(F)c1 [Compound 22]
Ki (rat mGluR1): 200 to 500 nM | Ki (rat mGluR5): < 200 nM

N#Cc1ccc2c(-c3ccccc3F)c(S(=O)(=O)c3ccc(F)c(Cl)c3)cnc2c1 [Compound 195]
Ki (rat mGluR1): > 500 nM | Ki (rat mGluR5): < 200 nM

Cc1ccc(S(=O)(=O)c2cnc3ccc(F)cc3c2-c2ccc(F)cc2)cc1F [Compound 131]
Ki (rat mGluR1): > 500 nM | Ki (rat mGluR5): < 200 nM

COc1cccc(-c2c(S(=O)(=O)c3ccc(C)c(F)c3)cnc3ccc(F)cc23)c1 [Compound 130]
Ki (rat mGluR1): > 500 nM | Ki (rat mGluR5): < 200 nM

O=S(=O)(c1ccc(F)cc1)c1cnc2cc(F)ccc2c1-c1ccc(Cl)cc1 [Compound 76]
Ki (rat mGluR1): > 500 nM | Ki (rat mGluR5): < 200 nM

Cc1ccc(S(=O)(=O)c2cnc3ccc(F)cc3c2-c2cccc(F)c2)cc1Cl [Compound 140]
Ki (rat mGluR1): > 500 nM | Ki (rat mGluR5): < 200 nM

N#Cc1cccc(S(=O)(=O)c2cnc3cc(F)ccc3c2-c2ccc(F)cc2)c1 [Compound 39]
Ki (rat mGluR1): 200 to 500 nM | Ki (rat mGluR5): < 200 nM

O=S(=O)(c1ccc(F)c(Cl)c1)c1cnc2c(F)cccc2c1-c1ccccc1F [Compound 209]
Ki (rat mGluR1): 200 to 500 nM | Ki (rat mGluR5): < 200 nM

N#Cc1cc(F)cc(S(=O)(=O)c2cnc3ccccc3c2-c2cccc(F)c2)c1 [Compound 207]
Ki (rat mGluR1): > 500 nM | Ki (rat mGluR5): < 200 nM

COc1cccc(S(=O)(=O)c2cnc3ccc(F)cc3c2-c2ccc(Cl)cc2)c1 [Compound 144]
Ki (rat mGluR1): > 500 nM | Ki (rat mGluR5): < 200 nM

N#Cc1cccc(S(=O)(=O)c2cnc3cc(Cl)ccc3c2-c2ccc(F)cc2)c1 [Compound 241]
Ki (rat mGluR1): 200 to 500 nM | Ki (rat mGluR5): < 200 nM

N#Cc1cc(S(=O)(=O)c2cnc3cc(Cl)ccc3c2-c2cccc(F)c2)ccc1F [Compound 219]
Ki (rat mGluR1): < 200 nM | Ki (rat mGluR5): < 200 nM

N#Cc1cc(S(=O)(=O)c2cnc3cc(F)ccc3c2-c2ccc(F)cc2)ccc1F [Compound 275]
Ki (rat mGluR1): > 500 nM | Ki (rat mGluR5): < 200 nM

COc1ccc(S(=O)(=O)c2cnc3ccc(F)cc3c2-c2cccc(F)c2)cc1 [Compound 30]
Ki (rat mGluR1): > 500 nM | Ki (rat mGluR5): 200 to 500 nM

N#Cc1cccc(S(=O)(=O)c2cnc3cc(C#N)ccc3c2-c2ccc(Cl)cc2)c1 [Compound 191]
Ki (rat mGluR1): > 500 nM | Ki (rat mGluR5): 200 to 500 nM

N#Cc1cccc(S(=O)(=O)c2cnc3c(F)cccc3c2-c2cccc(F)c2)c1 [Compound 215]
Ki (rat mGluR1): > 500 nM | Ki (rat mGluR5): < 200 nM

N#Cc1cc(F)cc(S(=O)(=O)c2cnc3cc(Cl)ccc3c2-c2cccc(Cl)c2)c1 [Compound 250]
Ki (rat mGluR1): 200 to 500 nM | Ki (rat mGluR5): < 200 nM

N#Cc1cc(S(=O)(=O)c2cnc3ccccc3c2-c2ccc(F)cc2)ccc1F [Compound 211]
Ki (rat mGluR1): > 500 nM | Ki (rat mGluR5): < 200 nM

N#Cc1cccc(S(=O)(=O)c2cnc3cc(F)ccc3c2-c2ccccc2F)c1 [Compound 230]
Ki (rat mGluR1): > 500 nM | Ki (rat mGluR5): < 200 nM

O=S(=O)(c1cc(F)cc(F)c1)c1cnc2c(F)cccc2c1-c1cccc(F)c1 [Compound 51]
Ki (rat mGluR1): > 500 nM | Ki (rat mGluR5): < 200 nM

O=S(=O)(c1cc(Cl)cc(Cl)c1)c1cnc2cc(Cl)ccc2c1-c1cccc(Cl)c1 [Compound 263]
Ki (rat mGluR1): 200 to 500 nM | Ki (rat mGluR5): < 200 nM

O=S(=O)(c1cc(Cl)cc(Cl)c1)c1cnc2cc(F)ccc2c1-c1ccc(F)cc1 [Compound 83]
Ki (rat mGluR1): 200 to 500 nM

Cc1ccc(S(=O)(=O)c2cnc3ccc(F)cc3c2-c2cccc(F)c2)cc1F [Compound 128]
Ki (rat mGluR1): > 500 nM | Ki (rat mGluR5): < 200 nM

N#Cc1cccc(S(=O)(=O)c2cnc3cc(F)ccc3c2-c2cccc(Cl)c2)c1 [Compound 91]
Ki (rat mGluR1): < 200 nM | Ki (rat mGluR5): < 200 nM

COc1ccc(-c2c(S(=O)(=O)c3ccc(OC)c(OC)c3)cnc3ccc(F)cc23)cc1 [Compound 71]
Ki (rat mGluR1): > 500 nM | Ki (rat mGluR5): > 500 nM

O=S(=O)(c1cc(Cl)cc(Cl)c1)c1cnc2c(F)cccc2c1-c1cccc(Cl)c1 [Compound 158]
Ki (rat mGluR1): 200 to 500 nM | Ki (rat mGluR5): < 200 nM

O=S(=O)(c1ccc(F)c(Cl)c1)c1cnc2cc(Cl)ccc2c1-c1ccc(F)cc1 [Compound 183]
Ki (rat mGluR1): > 500 nM | Ki (rat mGluR5): < 200 nM

O=S(=O)(c1ccc(F)c(F)c1)c1cnc2c(F)cccc2c1-c1ccc(F)c(F)c1 [Compound 238]
Ki (rat mGluR1): > 500 nM | Ki (rat mGluR5): < 200 nM

O=S(=O)(c1cc(Cl)cc(Cl)c1)c1cnc2c(F)cccc2c1-c1cccc(F)c1 [Compound 106]
Ki (rat mGluR1): > 500 nM | Ki (rat mGluR5): < 200 nM

Cc1ccc(S(=O)(=O)c2cnc3ccc(F)cc3c2-c2cccc(F)c2)cc1C [Compound 146]
Ki (rat mGluR1): > 500 nM | Ki (rat mGluR5): < 200 nM

COc1ccc(-c2c(S(=O)(=O)c3ccc(C)c(C)c3)cnc3cc(F)ccc23)cc1 [Compound 77]
Ki (rat mGluR1): > 500 nM | Ki (rat mGluR5): < 200 nM

O=S(=O)(c1ccc(Cl)cc1)c1cnc2c(Cl)ccc(Cl)c2c1-c1cccc(Cl)c1 [Compound 185]
Ki (rat mGluR1): > 500 nM | Ki (rat mGluR5): > 500 nM

COc1ccc(S(=O)(=O)c2cnc3cc(F)ccc3c2-c2cccc(Cl)c2)cc1OC [Compound 162]
Ki (rat mGluR1): > 500 nM | Ki (rat mGluR5): > 500 nM

O=S(=O)(c1ccc(F)c(Cl)c1)c1cnc2c(F)c(Cl)ccc2c1-c1cccc(F)c1 [Compound 203]
Ki (rat mGluR1): > 500 nM | Ki (rat mGluR5): < 200 nM

O=S(=O)(c1ccc(Cl)c(F)c1)c1cnc2cc(F)c(Cl)cc2c1-c1ccc(Cl)cc1 [Compound 189]
Ki (rat mGluR1): > 500 nM | Ki (rat mGluR5): < 200 nM

COc1cccc(-c2c(S(=O)(=O)c3ccc(OC)c(Cl)c3)cnc3cc(F)ccc23)c1 [Compound 96]
Ki (rat mGluR1): > 500 nM | Ki (rat mGluR5): 200 to 500 nM

O=S(=O)(c1ccc(Cl)cc1)c1cnc2cc(Cl)ccc2c1-c1ccc(F)cc1 [Compound 4, 7-chloro-3-(4-chloro-benzenesulfonyl)-4-(4-fluoro-phenyl)-quinoline]
Ki (rat mGluR1): 200 to 500 nM | Ki (rat mGluR5): < 200 nM

O=S(=O)(c1ccc(F)cc1)c1cnc2c(F)cccc2c1-c1cccc(Cl)c1 [Compound 20]
Ki (rat mGluR1): < 200 nM | Ki (rat mGluR5): < 200 nM

O=S(=O)(c1ccc(F)c(F)c1)c1cnc2cc(F)ccc2c1-c1ccc(Cl)cc1 [Compound 247]
Ki (rat mGluR1): > 500 nM | Ki (rat mGluR5): < 200 nM

O=S(=O)(c1cccc(F)c1)c1cnc2c(F)cccc2c1-c1cccc(Cl)c1 [Compound 58]
Ki (rat mGluR1): 200 to 500 nM | Ki (rat mGluR5): < 200 nM

COc1ccc(-c2c(S(=O)(=O)c3ccc(OC)c(Cl)c3)cnc3ccc(F)cc23)cc1 [Compound 74]
Ki (rat mGluR1): > 500 nM | Ki (rat mGluR5): < 200 nM

COc1ccc(-c2c(S(=O)(=O)c3cccc(C#N)c3)cnc3cc(F)ccc23)cc1 [Compound 92]
Ki (rat mGluR1): 200 to 500 nM | Ki (rat mGluR5): < 200 nM

O=S(=O)(c1ccc(Cl)cc1)c1cnc2ccc(F)cc2c1-c1cccc(Cl)c1 [Compound 8]
Ki (rat mGluR1): > 500 nM | Ki (rat mGluR5): > 500 nM

O=S(=O)(c1ccc(F)c(F)c1)c1cnc2c(F)cccc2c1-c1ccc(F)cc1 [Compound 123]
Ki (rat mGluR1): < 200 nM | Ki (rat mGluR5): < 200 nM

COc1ccc(-c2c(S(=O)(=O)c3ccc(C)c(F)c3)cnc3ccc(F)cc23)cc1 [Compound 129]
Ki (rat mGluR1): > 500 nM | Ki (rat mGluR5): < 200 nM

O=S(=O)(c1ccc(F)c(F)c1)c1cnc2ccccc2c1-c1cccc(F)c1 [Compound 240]
Ki (rat mGluR1): > 500 nM | Ki (rat mGluR5): < 200 nM

O=S(=O)(c1ccc(F)c(Cl)c1)c1cnc2c(F)c(Cl)ccc2c1-c1ccc(Cl)cc1 [Compound 197]
Ki (rat mGluR1): > 500 nM | Ki (rat mGluR5): < 200 nM

COc1ccc(S(=O)(=O)c2cnc3c(F)cccc3c2-c2cccc(OC)c2)cc1 [Compound 57]
Ki (rat mGluR1): > 500 nM | Ki (rat mGluR5): < 200 nM

Cc1ccc(S(=O)(=O)c2cnc3ccc(F)cc3c2-c2cccc(Cl)c2)cc1F [Compound 127]
Ki (rat mGluR1): > 500 nM | Ki (rat mGluR5): < 200 nM

O=S(=O)(c1cc(Cl)cc(Cl)c1)c1cnc2cc(Cl)ccc2c1-c1ccc(F)cc1 [Compound 178]
Ki (rat mGluR1): > 500 nM | Ki (rat mGluR5): < 200 nM

Cc1ccc(S(=O)(=O)c2cnc3cc(F)ccc3c2-c2ccc(Cl)cc2)cc1C [Compound 45]
Ki (rat mGluR1): > 500 nM | Ki (rat mGluR5): < 200 nM

O=S(=O)(c1cc(F)cc(F)c1)c1cnc2cc(Cl)ccc2c1-c1cccc(F)c1 [Compound 169]
Ki (rat mGluR1): > 500 nM | Ki (rat mGluR5): < 200 nM

O=S(=O)(c1ccc(F)c(Cl)c1)c1cnc2cc(F)c(Cl)cc2c1-c1ccccc1F [Compound 194]
Ki (rat mGluR1): > 500 nM | Ki (rat mGluR5): > 500 nM

N#Cc1cccc(S(=O)(=O)c2cnc3ccccc3c2-c2cccc(Cl)c2)c1 [Compound 265]
Ki (rat mGluR1): > 500 nM | Ki (rat mGluR5): < 200 nM

O=S(=O)(c1ccc(F)c(Cl)c1)c1cnc2cc(F)ccc2c1-c1ccccc1F [Compound 224]
Ki (rat mGluR1): 200 to 500 nM | Ki (rat mGluR5): < 200 nM

Cc1ccc(S(=O)(=O)c2cnc3cc(F)ccc3c2-c2cccc(Cl)c2)cc1C [Compound 17, 4-(3-chloro-phenyl)-3-(3,4-dimethyl-benzenesulfonyl)-7-fluoro-quinoline]
Ki (rat mGluR1): > 500 nM | Ki (rat mGluR5): < 200 nM

O=S(=O)(c1ccc(F)c(Cl)c1)c1cnc2c(F)cccc2c1-c1cccc(Cl)c1 [Compound 229]
Ki (rat mGluR1): 200 to 500 nM | Ki (rat mGluR5): < 200 nM

N#Cc1cc(F)cc(S(=O)(=O)c2cnc3ccccc3c2-c2ccc(F)c(F)c2)c1 [Compound 266]
Ki (rat mGluR1): > 500 nM | Ki (rat mGluR5): < 200 nM

O=S(=O)(c1ccc(F)c(F)c1)c1cnc2c(F)c(Cl)ccc2c1-c1ccc(Cl)cc1 [Compound 204]
Ki (rat mGluR1): > 500 nM | Ki (rat mGluR5): < 200 nM
